# Results as given in ChEMBL document CHEMBL5316284, “Structural Determinants of Indole-2-carboxamides: Identification of Lead Acetamides with Pan Antimycobacterial Activity” (J Med Chem, 2023).
# The source made the active and inactive calls. No cut-off for these calls is given here.
# What was measured:
# [1] = test system: Mycobacteroides abscessus; experiment: Antimycobacterial activity against Mycobacterium abscessus ATCC 19977 harbouring mmpL3 A309P mutant gene assessed as inhibition of bacterial growth by visual analysis; format: functional
# [2] = test system: Mycobacteroides abscessus; experiment: Antimycobacterial activity against Mycobacterium abscessus ATCC 19977 harbouring mmpL3 L551S mutant gene assessed as inhibition of bacterial growth by visual analysis; format: functional
# [3] = test system: Mycobacteroides abscessus; experiment: Antimycobacterial activity against Mycobacterium Mycobacterium abscessus ATCC 19977 harbouring mmpL3 I306S mutant gene assessed as inhibition of bacterial growth by visual analysis; format: functional
# [4] = Selectivity index, ratio of IC50 for Cytotoxicity against human WI26VA4 cells to MIC for antimycobacterial activity against Mycobacterium abscessus […]; format: toxicity, cell-based; conditions: read-out: Selectivity Index
# [5] = Selectivity index, ratio of IC50 for Cytotoxicity against human WI26VA4 cells to MIC for antimycobacterial activity against Mycobacterium tuberculosis H37Rv mc2 6206; format: toxicity, cell-based; conditions: read-out: Selectivity Index
# [6] = Plasma protein binding in human at 10 ug/ml incubated for 4 hrs under shaking condition by LC/MS/MS analysis; format: ADME, cell-free; conditions: at 10 µg/mL, read-out: PPB (converted)
# [7] = test system: Mycobacterium tuberculosis; experiment: Antimycobacterial activity against Mycobacterium tuberculosis H37Rv mc2 6206 assessed as inhibition of bacterial growth measured after 7 days by visual analysis; format: functional; conditions: H37Rv mc2 6206, 168 h, time 7 day
# [8] = Metabolic stability in human liver S9 fraction assessed as parent compound remaining at 5 ug/ml after 90 mins in presence of NADPH by LC/MS analysis; format: ADME, subcellular; conditions: s9, 1.5 h, dose 5 µg/ml
# [9] = Kinetic solubility of compound at pH 7.4 incubated for 6 hrs by LC-MS/MS analysis; format: physicochemical; conditions: buffer, read-out: Kinetic_solubility
# [10] = test system: THP-1; experiment: Cytotoxicity against human THP-1 cells assessed as inhibition of cell growth measured after 72 hrs by MTT assay; format: toxicity, cell-based
# [11] = Permeability of the compound by PAMPA method; format: ADME
# [12] = test system: Mycobacteroides abscessus; experiment: Antimycobacterial activity against Mycobacterium abscessus […] assessed as inhibition of bacterial growth measured after 5 days by visual analysis; format: functional; conditions: 120 h, time 5 day
# [13] = Cytotoxicity against mouse HEI-OC1 cells assessed as inhibition of cell growth measured after 72 hrs by MTT assay; format: toxicity, cell-based
# [14] = test system: Mycobacteroides abscessus; experiment: Antimycobacterial activity against Mycobacterium abscessus […] assessed as decrease in mycolic acid transfer onto cell wall trehalose dimycolate incubated for 3 hrs in presence of [1,2-14C]-acetate by TLC analysis; format: functional, organism-based
# [15] = Metabolic stability in mouse liver S9 fraction assessed as parent compound remaining at 5 ug/ml after 90 mins in presence of NADPH by LC/MS analysis; format: ADME, subcellular; conditions: s9, 1.5 h, dose 5 µg/ml
# [16] = Cytotoxicity against human WI26VA4 cells assessed as inhibition of cell growth measured after 72 hrs by MTT assay; format: toxicity, cell-based
# [17] = test system: Mycobacteroides abscessus; experiment: Antimycobacterial activity against Mycobacterium abscessus ATCC 19977 harbouring wild type mmpL3 gene assessed as inhibition of bacterial growth by visual analysis; format: functional
# [18] = Binding affinity to Mycobacterium tuberculosis MmpL3 assessed as equilibrium constant by SPR analysis
# [19] = test system: Mycobacterium tuberculosis; experiment: Displacement of North 114 from Mycobacterium tuberculosis wild type MmpL3 expressed in Mycobacterium smegmatis upto 8 uM incubated for 15 mins by flow cytometry based competition binding assay
# [20] = test system: Mycobacteroides chelonae; experiment: Antimycobacterial activity against Mycobacteroides chelonae ATCC 35752 assessed as inhibition of bacterial growth by visual analysis; format: functional
# [21] = Antimycobacterial activity against Mycobacterium avium subsp. avium 2585R assessed as inhibition of bacterial growth by visual analysis; format: functional
# [22] = test system: Mycobacterium kansasii; experiment: Antimycobacterial activity against Mycobacterium kansasii ATCC 1279 assessed as inhibition of bacterial growth by visual analysis; format: functional
# [23] = test system: Mycolicibacterium fortuitum; experiment: Antimycobacterial activity against Mycobacterium fortuitum ATCC 6841 assessed as inhibition of bacterial growth by visual analysis; format: functional
# [24] = test system: Mycobacteroides abscessus; experiment: Antimycobacterial activity against Mycobacterium abscessus […] assessed as inhibition of mycolic acid biosynthesis at 1 to 10 times of MIC incubated for 3 hrs in presence of [1,2-14C]-acetate by TLC analysis; format: functional, organism-based
# [25] = test system: Mycobacteroides abscessus; experiment: Antimycobacterial activity against Mycobacterium abscessus […] assessed as decrease in mycolic acid transfer onto cell wall arabinogalactan incubated for 3 hrs in presence of [1,2-14C]-acetate by TLC analysis; format: functional, organism-based
# [26] = Binding affinity to Mycobacterium tuberculosis MmpL3 assessed as dissociation constant by SPR analysis
# [27] = test system: Mycobacterium intracellulare subsp. chimaera; experiment: Antimycobacterial activity against Mycobacterium intracellulare subsp. chimaera 1501948 assessed as inhibition of bacterial growth by visual analysis; format: functional
# [28] = test system: Mycobacterium intracellulare; experiment: Antimycobacterial activity against Mycobacterium intracellulare 1956 assessed as inhibition of bacterial growth by visual analysis; format: functional
# [29] = Cytotoxicity against mouse HEI-OC1 cells assessed as viable cells upto 100 uM measured after 72 hrs by MTT assay; format: toxicity, cell-based; conditions: hei-oc1, 72 h
SMILES,MIC [1] [µg/mL],MIC [2] [µg/mL],MIC [3] [µg/mL],selectivity ratio [4],selectivity ratio [5],"fraction unbound at 4 h, 10 ug/ml [6]",MIC [7] [µg/mL],t1/2 [8] [min],solubility kinetic at 6 h [9] [µg/mL],permeability [11],Activity [14],t1/2 [15] [min],IC50 [16] [µg/mL],MIC [17] [µg/mL],Kd [18] [µM],Activity [19],MIC [20] [µg/mL],MIC [21] [µg/mL],MIC [22] [µg/mL],MIC [23] [µg/mL],further results
CC[C@H]1OC(=O)[C@H](C)[C@@H](O[C@H]2C[C@@](C)(OC)[C@@H](O)[C@H](C)O2)[C@H](C)[C@@H](O[C@@H]2O[C@H](C)C[C@H](N(C)C)[C@H]2O)[C@](C)(OC)C[C@@H](C)C(=O)[C@H](C)[C@@H](O)[C@]1(C)O [CLARITHROMYCIN],4,8,4,–,–,–,–,–,–,–,–,–,–,–,–,–,–,–,–,–,–
Cc1cc(C)c2cc(C(=O)NC3CCCCCCC3)[nH]c2c1,–,–,–,> 237,> 764,0.018,0.02,30,1.6,0.18 10^-6 cm/s,–,–,–,–,–,–,–,–,–,–,IC50 [10]: > 14.9 µg/mL; MIC [12]: 0.063 µg/mL
C[C@@H]1[C@H]2C[C@@H](C[C@H]1NC(=O)CNc1cccc(Cl)c1)C2(C)C,> 64,0.5,1,> 40,> 80,0.059,0.25,318,16.3,1.33 10^-6 cm/s,Active,276,> 20,0.5,800,Active,4,8,8,2,IC50 at 72 h [13]: 14.1 µM; Activity [24]: inactive; Activity [25]: Active; Kd [26]: 1.22 s⁻¹; MIC [27]: 16 µg/mL; MIC [28]: 8 µg/mL
O=C(CNc1cccc(OC(F)(F)F)c1)NC12CC3CC(CC(C3)C1)C2,> 64,0.5,1,> 40,> 80,0.051,0.25,42,20.4,3.61 10^-6 cm/s,Active,24,> 20,0.5,780,Active,4,8,8,2,Activity [29]: 70.8%; Activity [24]: inactive; Activity [25]: Active; Kd [26]: 1.23 s⁻¹; MIC [27]: 16 µg/mL; MIC [28]: 8 µg/mL
